“And” between values parts separate entries of the source, which are not always exact repeats. Equal values may be shown once. “Also recorded” adds a separate entry of the source. Read-outs that look alike come from different tables or passages of the source. Blank lines part the entries; values can stand above or below the compound they belong to.
What was measured:
[1] = tested on: ubiquitin-overexpressing HEK 293 cells; assay: Cell survival in ubiquitin-overexpressing cells vs empty vector-transfected control cells; type: cell-based, human; details: 24-h treatment at IC50 of each compound (Myr 3 mM, DM 650 μM; puromycin 1 and 2 μM)
Method: (§1) HEK 293FT cells were evaluated for survival following compound treatments by the Alamar Blue (resazurin) assay. Cells were plated onto 96-well plates at 4.8 × 10^4 cells/well in 0.5% FBS-containing DMEM at 37 °C and 5% CO2. After 24 h, compounds were added. After 24-h treatment, resazurin was added to a final concentration of 0.12 mM. Following 4-h incubation, conversion to the resorufin product was measured (with excitation at 542 nm and emission at 590 nm) on a fluorescence plate reader.
(§2) HEK 293FT cells (1.5 × 10^6) were plated onto 6-cm plates in 5 ml of DMEM with 10% FBS and allowed to grow for 24 h at 37 °C and 5% CO2. For transfections, 6 μg of plasmid DNA (empty vector containing FLAG-tag sequence only, FLAG-Uba1, or FLAG-ubiquitin) and 10 μl of Lipofectamine 2000 were used for each plate. The DNA and the reagent were diluted separately in 500 μl of Opti-MEM (Gibco), and each was mixed by vortexing. After 5-min incubation, the two tubes were combined and incubated for another 20 min. Prior to adding the transfection solution to the cells, the medium was replaced with 4 ml of Opti-MEM. The transfection solution was then added dropwise. After 3-h incubation, the medium was changed to 0.5% FBS-containing DMEM, and the cells were plated for cell survival experiments, as above.

[2] = target: T1, Uba1 (Homo sapiens, UniProt P22314); assay: Uba1~ubiquitin thioester formation (Uba1, GST-ubiquitin, ATP; silver-stained gels); type: biochemical; details: for Activity in the Uba1~ubiquitin thioester formation assay (in words): up to 500 μM
T1 construct: His; host or cells: E. coli BL21(DE3)
T1 sequence (P22314 1-1058): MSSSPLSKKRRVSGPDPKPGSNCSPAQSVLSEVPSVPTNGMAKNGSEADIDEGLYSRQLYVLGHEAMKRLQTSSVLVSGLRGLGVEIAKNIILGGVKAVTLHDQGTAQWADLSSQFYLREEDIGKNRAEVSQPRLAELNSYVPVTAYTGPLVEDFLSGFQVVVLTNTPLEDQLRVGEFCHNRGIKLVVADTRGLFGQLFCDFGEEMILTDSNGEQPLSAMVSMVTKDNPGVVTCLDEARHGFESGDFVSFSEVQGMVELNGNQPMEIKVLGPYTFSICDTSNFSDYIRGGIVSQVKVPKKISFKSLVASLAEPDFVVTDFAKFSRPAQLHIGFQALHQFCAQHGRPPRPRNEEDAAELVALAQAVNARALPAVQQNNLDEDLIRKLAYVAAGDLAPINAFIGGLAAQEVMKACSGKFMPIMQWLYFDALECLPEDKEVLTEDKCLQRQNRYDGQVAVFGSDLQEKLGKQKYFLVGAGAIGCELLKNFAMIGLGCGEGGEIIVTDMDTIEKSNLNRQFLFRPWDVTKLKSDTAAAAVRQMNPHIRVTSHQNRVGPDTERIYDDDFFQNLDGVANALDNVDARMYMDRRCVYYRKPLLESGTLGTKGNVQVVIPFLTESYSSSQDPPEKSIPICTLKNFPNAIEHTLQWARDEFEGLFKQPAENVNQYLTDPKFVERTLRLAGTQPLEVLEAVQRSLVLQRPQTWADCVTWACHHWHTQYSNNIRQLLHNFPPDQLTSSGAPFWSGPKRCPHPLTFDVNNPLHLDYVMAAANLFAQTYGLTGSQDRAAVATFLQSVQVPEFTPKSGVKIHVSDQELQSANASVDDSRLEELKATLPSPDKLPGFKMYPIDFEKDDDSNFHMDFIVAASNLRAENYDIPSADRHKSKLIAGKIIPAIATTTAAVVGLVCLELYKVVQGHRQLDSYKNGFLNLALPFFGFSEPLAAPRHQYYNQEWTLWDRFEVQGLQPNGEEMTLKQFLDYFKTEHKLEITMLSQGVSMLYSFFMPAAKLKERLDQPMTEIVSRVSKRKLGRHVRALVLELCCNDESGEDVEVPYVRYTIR

[3] = tested on: Uba1-overexpressing HEK 293 cells; assay: Cell survival in Uba1-overexpressing cells vs empty vector-transfected control cells; type: cell-based, human; details: 24-h treatment at IC50 of each compound (Myr 3 mM, DM 650 μM; puromycin 1 and 2 μM)
Method: as §1, §2

[4] = tested on: PCNA ubiquitination (RFC, Uba1, Rad6, Rad18, PCNA, ubiquitin); assay: Reconstituted PCNA ubiquitination cascade, Western blot quantitation; type: biochemical, human; details: for IC50: 15 min preincubation, 2 h with ATP, 2% DMSO, nonlinear regression, read-out: IC50 for inhibition of PCNA ubiquitination; for Activity in the PCNA ubiquitination assay (in words): up to 500 μM
Method: The PCNA loading and ubiquitination cascade was reconstituted in 96-well white round-bottom polypropylene plates (Greiner) in a buffer consisting of 40 mM Tris-HCl, pH 7.5, 8 mM MgCl2, and 10% glycerol with 2.5 nM nicked circular pUC19, 50 nM RFC, 50 nM Uba1, 250 nM Rad6–Rad18 dimer, 50 nM FLAG-PCNA, and 250 nM biotin-ubiquitin (final concentrations). Compounds were added to the samples, with preincubation for 15 min at 25 °C before addition of ATP to a final concentration of 2 mM (to initiate the reaction cascade), followed by incubation for 2 h at 25 °C. The reactions were then terminated by addition of EDTA to 20 mM for Alpha assays or Laemmli sample buffer for Western blot analyses. For Alpha assays, reaction mixtures were diluted in buffer containing streptavidin-conjugated donor beads and anti-FLAG antibody-conjugated acceptor beads in opaque white microplates under low-light conditions, as recommended by the Alpha bead manufacturer, PerkinElmer. The plates were read on a Tecan Spark microplate reader at 23 °C. For Western blot analyses, FLAG-PCNA was detected with anti-FLAG antibody, and quantitations from the Western blot images was performed with NIH ImageJ software[74] and then analyzed with GraphPad Prism software.

[5] = tested on: HEK 293FT cells; assay: Cell survival, Alamar Blue (resazurin) assay; type: cell-based, human; details: for Activity on cell viability / survival (in words) / IC50: 24-h treatment; for IC50: 2% DMSO, read-out: IC50 for inhibition of cell survival
Method: For cellular experiments, HEK 293FT cells (a fast-growing SV40 large T antigen-transformed strain of HEK 293 cells designed for enhanced transgene expression in transient transfections) were grown in growth medium consisting of Dulbecco’s modified Eagle’s medium (DMEM; Sigma-Aldrich), supplemented with 10% fetal bovine serum (FBS; Gibco) in a humified cell culture incubator at 37 °C with 5% CO2.
as §1

[6] = target: T1, Uba1; assay: Reversibility: Uba1 preincubation, washout by centrifugal filtration, then PCNA ubiquitination; type: biochemical; details: 30 μM compound preincubated with Uba1 for 2 h, then washed out
Method: Samples were then transferred to YM-30 Microcon centrifugal concentrators (Merck Millipore), diluted in buffer (40 mM Tris-HCl, pH 7.5, 8 mM MgCl2, and 10% glycerol), then serially centrifuged with additions of buffer to the remaining retentate between each spin, for final dilutions of compounds to <0.05% of original concentrations. The resulting samples were then tested in PCNA ubiquitination reactions.

[7] = tested on: HEK 293FT cells; assay: Cellular global ubiquitination with MG132, anti-ubiquitin Western blot; type: cell-based, human; details: EGCG 250 and 500 μM, 1 h total; MG132 50 μM for 30 min
Method: HEK 293FT cells were plated in 6-well plates at 8 × 10^5 cells/well in DMEM with 0.5% FBS. […] Cells were harvested, and whole-cell lysates were prepared in RIPA lysis buffer containing protease inhibitor cocktail ([…] from Sigma-Aldrich) and sonicated. Equivalent loadings of total protein for each treatment, as determined by Bradford assay of each extract sample, were subjected to electrophoresis on 8% SDS-polyacrylamide gels and Western blot analysis, probed with anti-ubiquitin antibody, then stripped and reprobed with anti-β-tubulin antibody.

[8] = target: T2, Rad6 (Homo sapiens, UniProt P63146); assay: Rad6~ubiquitin thioester formation by transfer from already formed Uba1~ubiquitin; type: biochemical; details: Rad6 preincubated with compound 15 min; 2% DMSO
T2 construct: FLAG; made in house
Method: The overall reaction was conducted in two separate steps: initial reaction of Uba1 with ubiquitin in the absence of compound, then mixing with Rad6 with compound to evaluate transfer of ubiquitin from already formed Uba1~ubiquitin to Rad6. The first reaction was conducted with 300 nM Uba1, 1 μM GST-ubiquitin, and 2 mM ATP in a buffer of 40 mM Tris-HCl, pH 7.5, 8 mM MgCl2, and 10% glycerol for 30 min at 25 °C to allow for charging of Uba1 with GST-ubiquitin incubations. […] The samples were then subjected to SDS-polyacrylamide gel electrophoresis under non-reducing conditions, silver staining, and quantitation of scanned images, as described above for the silver-staining-based Uba1~ubiquitin thioester formation assay.

[9] = Uba1 preincubated with compound 15 min, 2 h reaction, 2% DMSO, read-out: IC50 for inhibition of Uba1~ubiquitin thioester formation

T2 sequence (P63146 whole entry): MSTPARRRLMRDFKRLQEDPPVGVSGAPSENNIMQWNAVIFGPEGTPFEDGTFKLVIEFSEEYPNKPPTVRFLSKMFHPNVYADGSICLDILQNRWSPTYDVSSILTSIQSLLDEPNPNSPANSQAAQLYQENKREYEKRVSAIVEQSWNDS

Compound: O=c1c(O)c(-c2cc(O)c(O)c(O)c2)oc2cc(O)cc(O)c12 [Myr, Myricetin]
Effect of ubiquitin overexpression on cell survival [1]: Protects | Uba1~ubiquitin thioester formation, ubiquitin alone preincubated with compound before Uba1 and ATP ([2]; EGCG 10 μM, Myr 50 μM): resulted in inhibition | IC50 ([2]; Fig. 6, read-out: IC50 (Uba1~Ub)): 0.721 µM | IC50 [2, 9]: 0.721 µM | Activity in the Uba1~ubiquitin thioester formation assay (in words) [2]: active | Effect of Uba1 overexpression on cell survival [3]: Protects | IC50 [4]: 1.21 µM | Activity in the PCNA ubiquitination assay (in words) [4]: active | Activity in the cell viability experiments at 500 μM ([5]; 500 μM, 24 h): only very weak activity | Activity on cell viability / survival (in words) [5]: very weak activity | IC50 ([5]; Homo sapiens, HEK293FT, 24 h): > 500 µM | Reversibility of inhibition of Uba1 and PCNA ubiquitination after washout [6]: reversible

Compound: O=C(O[C@@H]1Cc2c(O)cc(O)cc2O[C@@H]1c1cc(O)c(O)c(O)c1)c1cc(O)c(O)c(O)c1 [EGCG, (–)-Epigallocatechin-3-gallate]
Effect of ubiquitin overexpression on cell survival [1]: reduced sensitivity; also recorded: Protects | Uba1~ubiquitin thioester formation, Uba1 alone preincubated with compound before ubiquitin and ATP ([2]; EGCG 10 μM, Myr 50 μM): complete inhibition | Uba1~ubiquitin thioester formation, ubiquitin alone preincubated with compound before Uba1 and ATP ([2]; EGCG 10 μM, Myr 50 μM): did not | Activity in the Uba1~ubiquitin thioester formation assay (in words) [2]: inhibitory | Accumulation of ubiquitin-conjugated protein species in response to MG132 (global cellular ubiquitination) [7]: inhibited | Formation of the Rad6~ubiquitin thioester conjugate [8]: does not inhibit | Effect of Uba1 overexpression on cell survival [3]: reduced sensitivity; also recorded: Protects | IC50 [4]: 0.228 µM | Activity in the PCNA ubiquitination assay (in words) [4]: inhibitory | Activity on cell viability / survival (in words) [5]: reduces the viability and growth; also recorded: inhibitory | IC50 [5]: 220 µM | IC50 ([5]; Homo sapiens, HEK293FT, 24 h): 220 µM | Reversibility of inhibition of Uba1 and PCNA ubiquitination after washout [6]: reversible

IC50 [2, 9]: 4.2 µM and 4.22 µM | Activity in the Uba1~ubiquitin thioester formation assay (in words) [2]: active | IC50 [4]: 0.537 µM
Compound: O=C(O[C@@H]1Cc2c(O)cc(O)cc2O[C@@H]1c1ccc(O)c(O)c1)c1cc(O)c(O)c(O)c1 [ECG, (–)-Epicatechin-3-gallate]
Effect of ubiquitin overexpression on cell survival [1]: mitigated; also recorded: Protects | Effect of Uba1 overexpression on cell survival [3]: mitigated; also recorded: Protects | Activity in the PCNA ubiquitination assay (in words) [4]: active | Activity on cell viability / survival (in words) [5]: active | IC50 [5]: 262 µM | IC50 ([5]; Homo sapiens, HEK293FT, 24 h): 262 µM
